Laboratory results published in ChEMBL document CHEMBL1240307, “A functional genomics approach to the mode of action of apratoxin A” (Nat Chem Biol, 2006).

Key:
HT-29 [1] = assay: Antitumor activity against human HT-29 cells assessed as down-regulation of CCNE2 mRNA expression at 2 nM after 3 hrs relative to control; assay type: functional
HT-29 [2] = assay: Antitumor activity against human HT-29 cells assessed as upregulation of MGC4504 mRNA expression at 2 nM after 3 hrs relative to control; assay type: functional
HT-29 [3] = assay: Antitumor activity against human HT-29 cells assessed as upregulation of DDIT4 mRNA expression at 10 nM after 3 hrs relative to control; assay type: functional
HL-60(TB) = assay: Cytotoxicity against human HL-60(TB) cells by sulforhodamine B assay; assay type: functional
HT-29 [4] = assay: Antitumor activity against human HT-29 cells assessed as upregulation of MGC4504 mRNA expression at 10 nM after 6 hrs relative to control; assay type: functional
MOLT-4 = assay: Cytotoxicity against human MOLT4 cells by sulforhodamine B assay; assay type: functional
HT-29 [5] = assay: Antitumor activity against human HT-29 cells assessed as upregulation of MGC4504 mRNA expression at 2 nM after 6 hrs relative to control; assay type: functional
HT-29 [6] = assay: Antitumor activity against human HT-29 cells assessed as upregulation of HSPA1A mRNA expression at 2 nM after 12 hrs relative to control; assay type: functional
HCC 2998 = assay: Cytotoxicity against human HCC2998 cells by sulforhodamine B assay; assay type: functional
NCI-H460 = assay: Cytotoxicity against human NCI-H460 cells by sulforhodamine B assay; assay type: functional
HT-29 [7] = assay: Antitumor activity against human HT-29 cells assessed as upregulation of MGC4504 mRNA expression at 10 nM after 3 hrs relative to control; assay type: functional
HT-29 [8] = assay: Antitumor activity against human HT-29 cells assessed as down-regulation of GTSE1 mRNA expression at 2 nM after 6 hrs relative to control; assay type: functional
HT-29 [9] = assay: Antitumor activity against human HT-29 cells assessed as down-regulation of RAB11B mRNA expression at 2 nM after 6 hrs relative to control; assay type: functional
SK-OV-3 = assay: Cytotoxicity against human SKOV3 cells by sulforhodamine B assay; assay type: functional
HT-29 [10] = assay: Antitumor activity against human HT-29 cells assessed as down-regulation of CCNE2 mRNA expression at 10 nM after 3 hrs relative to control; assay type: functional
SF-539 = assay: Cytotoxicity against human SF539 cells by sulforhodamine B assay; assay type: functional
HT-29 [11] = assay: Antitumor activity against human HT-29 cells assessed as upregulation of HSPA1A mRNA expression at 10 nM after 6 hrs relative to control; assay type: functional
HT-29 [12] = assay: Antitumor activity against human HT-29 cells assessed as down-regulation of TAL1 mRNA expression at 10 nM after 12 hrs relative to control; assay type: functional
NCI-H322M = assay: Cytotoxicity against human NCI-H322M cells by sulforhodamine B assay; assay type: functional
EKVX = assay: Cytotoxicity against human EKVX cells by sulforhodamine B assay; assay type: functional
U2OS = assay: Cell cycle arrest in human U2OS cells overexpressing mouse Fgfr1 assessed as accumulation at G1 phase at 15 nM after 48 hrs by CMV-GFP reporter assay method (reference value: 58%); assay type: functional
HT-29 [13] = assay: Antitumor activity against human HT-29 cells assessed as down-regulation of GTSE1 mRNA expression at 2 nM after 3 hrs relative to control; assay type: functional
[14] = Cytotoxicity against activated human CD4+ T cells assessed as cell viability after 5 days by fluorescence detection method; assay type: cell-based; conditions: 120 h
SK-MEL-28 = assay: Cytotoxicity against human SK-MEL-28 cells by sulforhodamine B assay; assay type: functional
HCT-116 = assay: Cytotoxicity against human HCT116 cells by sulforhodamine B assay; assay type: functional
OVCAR-3 = assay: Cytotoxicity against human OVCAR-3 cells by sulforhodamine B assay; assay type: functional
HT-29 [15] = assay: Antitumor activity against human HT-29 cells assessed as down-regulation of CDC25A mRNA expression at 10 nM after 6 hrs relative to control; assay type: functional
[16] = Cytotoxicity against human […] cells by sulforhodamine B assay; assay type: functional
HT-29 [17] = assay: Antitumor activity against human HT-29 cells assessed as upregulation of KCNK10 mRNA expression at 2 nM after 3 hrs relative to control; assay type: functional
HT-29 [18] = assay: Antitumor activity against human HT-29 cells assessed as down-regulation of TAL1 mRNA expression at 2 nM after 6 hrs relative to control; assay type: functional
HT-29 [19] = assay: Antitumor activity against human HT-29 cells assessed as upregulation of HSPA1A mRNA expression at 2 nM after 6 hrs relative to control; assay type: functional
[20] = read-out: LC50 (the source's name)

SMILES: CC[C@H](C)[C@H]1C(=O)N2CCC[C@H]2C(=O)O[C@H](C(C)(C)C)C[C@@H](C)C[C@H](O)[C@H](C)C2=N[C@@H](/C=C(\C)C(=O)N[C@@H](Cc3ccc(OC)cc3)C(=O)N(C)[C@@H](C)C(=O)N1C)CS2 [APRATOXIN A]
- fold change (FC) (HT-29 [1]): <=2
- fold change (FC) (HT-29 [2]): <=2
- fold change (FC) (HT-29 [3]): 4.09
- GI50 (HL-60(TB)): 0.851 nM
- fold change (FC) (HT-29 [4]): 10.46
- GI50 (MOLT-4): 48 nM
- fold change (FC) (HT-29 [5]): 7.57
- fold change (FC) (HT-29 [6]): <=2
- GI50 (HCC 2998): 3.65 nM
- GI50 (NCI-H460): 2.77 nM
- fold change (FC) (HT-29 [7]): <=2
- fold change (FC) (HT-29 [8]): <=2
- fold change (FC) (HT-29 [9]): <=2
- GI50 (SK-OV-3): 5.27 nM
- fold change (FC) (HT-29 [10]): <=2
- GI50 (SF-539): 0.503 nM
- CC50 (SF-539; [20]): 69.4 nM
- fold change (FC) (HT-29 [11]): 2.68
- fold change (FC) (HT-29 [12]): <=2
- GI50 (NCI-H322M): 3.99 nM
- GI50 (EKVX): 7.56 nM
- inhibition at 0.015 µM (U2OS): 58%
- fold change (FC) (HT-29 [13]): <=2
- IC50 [14]: 60 nM
- GI50 (SK-MEL-28): 5.49 nM
- GI50 (HCT-116): 0.916 nM
- GI50 (OVCAR-3): 16.9 nM
- fold change (FC) (HT-29 [15]): <=2
- GI50 [16]: 1.28 nM
- CC50 [16, 20]: 69 nM
- fold change (FC) (HT-29 [17]): <=2
- fold change (FC) (HT-29 [18]): <=2
- fold change (FC) (HT-29 [19]): 2.56
